From EPA's CvTdb concentration-time database

Experiments:
[1] = tested on: Rat; assay: concentration in plasma after dosing; details: 1 h; dosed: Wyeth-14643; 2.0 mg/kg; iv; Male; Sprague-Dawley
[2] = tested on: Rat; assay: concentration in plasma after dosing; details: 5 min; dosed: Wyeth-14643; 2.0 mg/kg; oral; Male; Sprague-Dawley
[3] = tested on: Rat; assay: concentration in plasma after dosing; details: 2 h; dosed: Bis 2-Chloroethoxy Methane; 40 mg/kg; iv; Male; Harlan Sprague Dawley
[4] = tested on: Rat; assay: concentration in liver after dosing; details: 4 h; dosed: Bis 2-Chloroethoxy Methane; 20 mg/kg; iv; Male; F344
[5] = tested on: Rat; assay: concentration in plasma after dosing; details: 2 h; dosed: Bis 2-Chloroethoxy Methane; 20 mg/kg; iv; Male; F344
[6] = tested on: Rat; assay: concentration in thymus after dosing; details: 5 h; dosed: Bis 2-Chloroethoxy Methane; 20 mg/kg; iv; Male; F344
[7] = tested on: Rat; assay: concentration in thymus after dosing; details: 3 h; dosed: Bis 2-Chloroethoxy Methane; 20 mg/kg; iv; Female; F344
[8] = tested on: Rat; assay: concentration in heart after dosing; details: 1 h; dosed: Bis 2-Chloroethoxy Methane; 20 mg/kg; iv; Female; F344
[9] = tested on: Rat; assay: concentration in plasma after dosing; details: dosed: Fluorotelomer alcohol 8+2, 12 mg/kg, oral, Male, Harlan Sprague Dawley
[10] = tested on: Rat; assay: concentration in plasma after dosing; details: 0.25 h; dosed: Di-n-butyl phthalate; 100 mg/kg; oral; Male; Sprague-Dawley
[11] = tested on: Rat; assay: concentration in plasma after dosing; details: 22 h; dosed: Primidone; 130 mg/kg; oral; Female; F344
[12] = tested on: Rat; assay: concentration in plasma after dosing; details: 6 h; dosed: Primidone; 30 mg/kg; oral; Female; F344
[13] = tested on: Rat; assay: concentration in plasma after dosing; details: 9 h; dosed: Primidone; 30 mg/kg; oral; Female; F344
[14] = tested on: Rat; assay: concentration in liver after dosing; details: 8 h; dosed: Thiodiglycolic Acid; 20 mg/kg; iv; Female; Harlan Sprague Dawley
[15] = tested on: Rat; assay: concentration in heart after dosing; details: 8 h; dosed: Thiodiglycolic Acid; 20 mg/kg; iv; Female; Harlan Sprague Dawley
[16] = tested on: Rat; assay: concentration in heart after dosing; details: 20 min; dosed: Thiodiglycolic Acid; 20 mg/kg; iv; Female; Harlan Sprague Dawley
[17] = tested on: Rat; assay: concentration in liver after dosing; details: 8 h; dosed: Thiodiglycolic Acid; 20 mg/kg; iv; Female; Harlan Sprague Dawley; remark: listed apart in the source
[18] = tested on: Rat; assay: concentration in liver after dosing; details: 10 h; dosed: Thiodiglycolic Acid; 20 mg/kg; iv; Male; F344
[19] = tested on: rat; assay: concentration in blood after dosing; details: dosed: p-tert-octylphenol, Sprague-Dawley

Cc1cccc(Nc2cc(Cl)nc(SCC(=O)O)n2)c1C
Details | concentration in plasma [ng/mL]
[1] | 2190
[2] | 405

ClCCOCOCCCl [Bis 2-Chloroethoxy Methane]
Details | concentration in heart [ng/g] | concentration in liver [ng/g] | concentration in plasma [ng/mL] | concentration in thymus [ng/g]
[3] | – | – | 840 | –
[4] | – | 161 | – | –
[5] | – | – | 282 | –
[6] | – | – | – | 78.9
[7] | – | – | – | 174
[8] | 1380 | – | – | –

OCCC(F)(F)C(F)(F)C(F)(F)C(F)(F)C(F)(F)C(F)(F)C(F)(F)C(F)(F)F [Fluorotelomer alcohol 8+2]
[9]
Details | concentration in plasma [ng/mL]
3 h | 147
5 min | 2.04

CCCCOC(=O)c1ccccc1C(=O)O [Mono-n-butyl phthalate]
Details | concentration in plasma [ng/mL]
[10] | 31700

CCC1(c2ccccc2)C(=O)NC(=O)NC1=O [Phenobarbital]
Details | concentration in plasma [ng/mL]
[11] | 2490
[12] | 990
[13] | 990

O=C(O)CSCC(=O)O [Thiodiglycolic Acid]
Details | concentration in heart [ng/g] | concentration in liver [ng/g]
[14] | – | 29000
[15] | 393 | –
[16] | 6060 | –
[17] | – | 60900
[18] | – | 630

CC(C)(C)CC(C)(C)c1ccc(O)cc1 [octylphenol]
concentration in blood [ng/mL], [19]
Details | female | male
0.1573 h, 2 mg/kg, iv | – | 159
0.1576 h, 4 mg/kg, iv | – | 317
0.1581 h, 8 mg/kg, iv | – | 942
0.1679 h, 2 mg/kg, iv | 116 | –
0.1763 h, 4 mg/kg, iv | 283 | –
0.1763 h, 8 mg/kg, iv | 852 | –
0.4805 h, 8 mg/kg, iv | – | 376
0.4823 h, 125 mg/kg, oral | – | 157
0.4883 h, 2 mg/kg, iv | – | 63.6
0.4888 h, 4 mg/kg, iv | – | 169
0.499 h, 250 mg/kg, oral | – | 244
0.5015 h, 50 mg/kg, oral | – | 63.7
0.5164 h, 2 mg/kg, iv | 67.8 | –
0.5164 h, 4 mg/kg, iv | 141 | –
0.5164 h, 8 mg/kg, iv | 430 | –
0.519 h, 125 mg/kg, oral | 159 | –
0.5202 h, 250 mg/kg, oral | 222 | –
0.5529 h, 50 mg/kg, oral | 136 | –
0.8196 h, 2 mg/kg, iv | – | 46.6
0.8247 h, 8 mg/kg, iv | – | 258
0.8286 h, 4 mg/kg, iv | – | 107
0.8355 h, 2 mg/kg, iv | 43.6 | –
0.8355 h, 4 mg/kg, iv | 89.6 | –
0.8397 h, 8 mg/kg, iv | 303 | –
0.9901 h, 250 mg/kg, oral | – | 379
0.9911 h, 125 mg/kg, oral | – | 219
0.9923 h, 50 mg/kg, oral | – | 116
1.038 h, 125 mg/kg, oral | 271 | –
1.051 h, 50 mg/kg, oral | 87.5 | –
1.147 h, 8 mg/kg, iv | – | 210
1.155 h, 2 mg/kg, iv | – | 28.8
1.16 h, 4 mg/kg, iv | – | 69.7
1.167 h, 2 mg/kg, iv | 23.8 | –
1.167 h, 4 mg/kg, iv | 71 | –
1.167 h, 8 mg/kg, iv | 229 | –
1.486 h, 2 mg/kg, iv | – | 24.8
1.487 h, 8 mg/kg, iv | – | 169
1.499 h, 8 mg/kg, iv | 170 | –
1.5 h, 4 mg/kg, iv | – | 59.3
1.503 h, 2 mg/kg, iv | 25.3 | –
1.503 h, 4 mg/kg, iv | 59 | –
1.994 h, 2 mg/kg, iv | 16.1 | –
1.994 h, 4 mg/kg, iv | 46.2 | –
1.994 h, 8 mg/kg, iv | 128 | –
2.003 h, 2 mg/kg, iv | – | 22.4
2.003 h, 4 mg/kg, iv | – | 39.3
2.004 h, 8 mg/kg, iv | – | 122
2.038 h, 125 mg/kg, oral | 235 | –
2.052 h, 50 mg/kg, oral | 109 | –
2.08 h, 250 mg/kg, oral | – | 305
2.081 h, 50 mg/kg, oral | – | 128
2.081 h, 125 mg/kg, oral | – | 171
2.989 h, 4 mg/kg, iv | – | 23.4
2.993 h, 8 mg/kg, iv | – | 72.1
2.998 h, 2 mg/kg, iv | 15.9 | –
2.998 h, 4 mg/kg, iv | 33.8 | –
3.015 h, 8 mg/kg, iv | 101 | –
3.991 h, 4 mg/kg, iv | – | 12.2
3.996 h, 8 mg/kg, iv | – | 40.2
3.997 h, 8 mg/kg, iv | 57.6 | –
4.014 h, 4 mg/kg, iv | 21.7 | –
4.016 h, 50 mg/kg, oral | 70 | –
4.022 h, 250 mg/kg, oral | 320 | –
4.03 h, 250 mg/kg, oral | – | 260
4.031 h, 125 mg/kg, oral | – | 160
4.032 h, 50 mg/kg, oral | – | 85.1
4.038 h, 125 mg/kg, oral | 268 | –
6.016 h, 50 mg/kg, oral | 69.2 | –
6.02 h, 125 mg/kg, oral | 210 | –
6.021 h, 250 mg/kg, oral | 268 | –
6.034 h, 250 mg/kg, oral | – | 192
6.07 h, 50 mg/kg, oral | – | 87
6.07 h, 125 mg/kg, oral | – | 123
7.933 h, 50 mg/kg, oral | – | 77.3
8 h, 50 mg/kg, oral | 93.2 | –
8.003 h, 125 mg/kg, oral | 205 | 95.8
8.005 h, 250 mg/kg, oral | 357 | –
8.019 h, 250 mg/kg, oral | – | 210
11.97 h, 250 mg/kg, oral | 373 | –
11.98 h, 50 mg/kg, oral | 69.7 | –
11.99 h, 50 mg/kg, oral | – | 37.2
11.99 h, 125 mg/kg, oral | – | 84.2
11.99 h, 250 mg/kg, oral | – | 157
12.02 h, 125 mg/kg, oral | 209 | –
24.01 h, 50 mg/kg, oral | 24.7 | –
24.02 h, 250 mg/kg, oral | – | 107
24.03 h, 50 mg/kg, oral | – | 7.77
24.03 h, 125 mg/kg, oral | 63.5 | –
24.04 h, 125 mg/kg, oral | – | 28.8
24.04 h, 250 mg/kg, oral | 307 | –

concentration in blood [ng/mL], [19], 125 mg/kg
Details | 0.5035 h | 0.5155 h | 1.054 h | 2.015 h | 4.058 h | 5.98 h | 8.091 h | 12.04 h | 24.03 h
female | – | 19 | – | – | – | – | – | – | –
male | 23.9 | – | 39.1 | 61.8 | 90.3 | 102 | 180 | 122 | 54.7
